The nature of assay [1]: Reducing activity of the stable radical DPPH. Particulars: 100 μM compound, after 20 min. In outline:
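Compounds (100 μM) mixed with equal volume of 100 μM DPPH in absolute ethanol at room temperature; absorbance at 517 nm read after 20 and 60 min against ethanol control. Activity given as RA% (reducing activity); NDGA standard.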
(Loss of DPPH colour is used to gauge radical scavenging.)

The nature of assay [2]: Competition of the tested compounds with DMSO for hydroxyl radicals. Particulars: 100 μM compound, Fe3+/ascorbic acid, 30 min, 37°C; 100 µM. How it is done:
2.2.2.2 Competition of the tested compounds with DMSO for hydroxyl radicals
The hydroxyl radicals generated by the Fe ^3+ /ascorbic acid system, were detected according to Nash, by the determination of formaldehyde produced from the oxidation of DMSO. The reaction mixture contained EDTA (0.1 mM), Fe ^3+ (167 μM), DMSO (33 mM) in phosphate buffer (50 mM, pH 7.4), the tested compounds (concentration 0.1mM) and ascorbic acid (10 mM). After 30 min of incubation (37°C) the reaction was stopped with CCl3COOH (17% w/v) (Table 5). Trolox was used as a standard.
Superoxide (O2^-.) anion and hydroxyl radical (^.OH) are free radical species of potential importance. In the acidic conditions of ischemic brain, O2^-. is probably protonated to give HO2^-. species. Iron released from damaged brain cells is more likely to be readily available to catalyze the generation of OH radicals. Among the ROS, the hydroxyl (^•OH) free radical is possibly the most toxic, as it reacts with a number of biological important molecules. Polyunsaturated fatty acids are found in high concentrations in the CNS, and are particularly vulnerable by free radicals. Thus, we tried to test the ability of our compounds to scavenge hydroxyl radicals. […] All the derivatives of series 13 (except of 13i) present high antioxidant activity (80-100%) which is not able to be correlated with any specific structural characteristic since all contain a coumarin, a purine and an isoxazolyl moiery. […] It seems that the overall molar configuration influences the response. However, antioxidants with hydrophilic or lipophilic character are both needed to act as radical scavengers in the aqueous phase or as chain-breaking antioxidants in biological membranes.

A further assay concerns the target T1, soybean lipoxygenase (Glycine max, UniProt P08170).
T1 construct: purchased Sigma Chemical, Co. (St. Louis, MO, USA)
T1 sequence (P08170 1-839): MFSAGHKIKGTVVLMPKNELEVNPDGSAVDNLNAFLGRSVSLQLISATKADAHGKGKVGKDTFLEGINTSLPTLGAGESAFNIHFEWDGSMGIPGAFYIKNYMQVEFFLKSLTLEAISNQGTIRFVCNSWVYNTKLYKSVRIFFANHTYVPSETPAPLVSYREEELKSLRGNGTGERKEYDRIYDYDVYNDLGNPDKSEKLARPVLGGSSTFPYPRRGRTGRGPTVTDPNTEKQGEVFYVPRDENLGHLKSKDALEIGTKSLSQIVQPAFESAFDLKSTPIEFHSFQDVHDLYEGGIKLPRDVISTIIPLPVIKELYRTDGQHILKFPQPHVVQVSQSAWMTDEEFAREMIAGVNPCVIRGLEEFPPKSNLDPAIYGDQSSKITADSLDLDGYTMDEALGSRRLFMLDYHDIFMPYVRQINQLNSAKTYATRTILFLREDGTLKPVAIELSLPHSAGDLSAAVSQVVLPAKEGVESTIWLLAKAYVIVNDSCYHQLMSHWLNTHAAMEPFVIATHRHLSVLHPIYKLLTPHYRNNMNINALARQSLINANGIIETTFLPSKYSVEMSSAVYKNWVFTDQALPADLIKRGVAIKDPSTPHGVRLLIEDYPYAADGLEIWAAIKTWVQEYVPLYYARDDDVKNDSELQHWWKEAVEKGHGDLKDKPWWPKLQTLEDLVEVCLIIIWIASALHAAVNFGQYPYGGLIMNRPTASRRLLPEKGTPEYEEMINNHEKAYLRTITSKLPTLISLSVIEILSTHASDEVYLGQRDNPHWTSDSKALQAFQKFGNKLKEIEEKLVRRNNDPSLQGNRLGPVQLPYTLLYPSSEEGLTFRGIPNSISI
The assay is described as follows: Soybean lipoxygenase inhibition in vitro. Particulars: for IC50: read-out: LOX IC50 μΜ. The class given is biochemical.

Assay [3] addresses T2, equine serum butyrylcholinesterase (esBChE) (Equus caballus, UniProt P81908).
T2 construct: purchased Sigma; host or cells: equine serum
Briefly: Inhibition of esBChE (Ellman's test). Format: biochemical. Particulars: read-out: esBChE % inhibn. @ 10 μΜ. An excerpt:
2.2.2.5 Inhibition Study on ChEs in vitro
In vitro inhibition of electric eel acetylcholinesterase (eeAChE; 463 U/mg, Sigma) and equine serum butyrylcholinesterase (esBChE; 13 U/mg, Sigma) was investigated with a 96-well plate procedure based on the classical Ellman’s spectrophotometric test, as already described.
In general terms: In Ellman's method for cholinesterases, released thiocholine reacts with DTNB.

The IC50 is the concentration needed to halve the response being measured.

T2 sequence (P81908 whole entry): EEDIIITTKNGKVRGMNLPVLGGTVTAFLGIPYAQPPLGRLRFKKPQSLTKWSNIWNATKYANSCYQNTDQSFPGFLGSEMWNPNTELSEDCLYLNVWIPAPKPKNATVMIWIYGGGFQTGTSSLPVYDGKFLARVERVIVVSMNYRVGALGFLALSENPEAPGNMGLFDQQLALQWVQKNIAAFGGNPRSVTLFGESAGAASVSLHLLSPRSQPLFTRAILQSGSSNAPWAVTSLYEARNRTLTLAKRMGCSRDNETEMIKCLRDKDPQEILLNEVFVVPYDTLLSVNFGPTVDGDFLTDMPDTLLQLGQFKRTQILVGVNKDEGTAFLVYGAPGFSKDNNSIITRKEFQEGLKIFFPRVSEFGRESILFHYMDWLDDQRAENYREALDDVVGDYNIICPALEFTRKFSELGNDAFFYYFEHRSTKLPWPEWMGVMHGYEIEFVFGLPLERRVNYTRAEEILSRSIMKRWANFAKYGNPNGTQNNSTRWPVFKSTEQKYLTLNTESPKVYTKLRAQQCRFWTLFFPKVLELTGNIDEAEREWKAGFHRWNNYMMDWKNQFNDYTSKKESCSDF

`O=c1cc(OCC2CC(Cn3cnc4c(N5CCCCC5)ncnc43)=NO2)c2ccccc2o1` (stereo not drawn) [4f]: in assay [1], the “RA% @ 100μΜ (reducing activity, DPPH)” value was determined as 3%. Besides, the “∙ΟΗ % @ 100μΜ (hydroxyl radical scavenging, percent inhibition of formaldehyde production)” value in assay [2] was “did not present any activity and no”. The IC50 at soybean lipoxygenase amounted to 53 µM. In addition, the inhibition at 10 µM in assay [3] was 36%.
With `Cc1cc(=O)oc2ccc(OCC3=NOC(Cn4cnc5c(Cl)ncnc54)C3)cc12` (stereo not drawn) [11b], the “RA% @ 100μΜ (reducing activity, DPPH)” value in assay [1] is 5%. Moreover, the “∙ΟΗ % @ 100μΜ (hydroxyl radical scavenging, percent inhibition of formaldehyde production)” value in assay [2] was “did not present any activity and no”. Also, the “%LOX @ 100μΜ” value at soybean lipoxygenase (100 μM compound) is “no”. In addition, in assay [3], the inhibition at 10 µM was found to be 8%.
In the case of `O=c1cc(OCc2cc(Cn3cnc4c(N5CCOCC5)ncnc43)no2)c2ccccc2o1` [13i], the “RA% @ 100μΜ (reducing activity, DPPH)” value in assay [1] is “no”. The “∙ΟΗ % @ 100μΜ (hydroxyl radical scavenging, percent inhibition of formaldehyde production)” value in assay [2] was “did not present any activity and no”. Further, at soybean lipoxygenase, the IC50 came out at 76 µM. Further, the inhibition at 10 µM in assay [3] worked out at 18%.

The values above are taken from PMC5748833, “Synthesis and Biological Evaluation of Novel Hybrid Molecules Containing Purine, Coumarin and Isoxazoline or Isoxazole Moieties” (The Open Medicinal Chemistry Journal, 2017).
